These compounds were tested on retinal pigment epithelium (RPE) cells (assay: Circadian patterns of VEGF secretion by perfused RPE monolayers (ELISA, Cosinor fit)). Conditions: alternating 12-hour intervals, conclusion in words.
Assay type: cell-based
Experimental: The purpose of this study was to test whether retinal pigment epithelium (RPE) cells express vascular endothelial growth factor (VEGF) in a circadian manner. We tested the hypothesis that 12 hour alternating intervals of dopamine then melatonin combined with L-DOPA would induce RPE cells into a circadian rhythm that controlled VEGF expression. Methods: RPE monolayers were produced on snap-well filters, which were maintained in static culture conditions for at least six months, during which time they became pigmented and well differentiated. […] A baseline of VEGF secretion was established over a 3-week period. After the baseline was established, the cells were perfused with media containing 1 ? M dopamine for 12 hours, then media containing 1 ? M melatonin plus 1 ? M L-DOPA for the next 12 hours. […] Initiation of the next drug dilutes the previous over 12 hours while simultaneously ramping up the new drug. Cells were maintained in this circadian rhythm for at least three cycles. […] The amount of VEGF was plotted against the time of perfusion and fitted using the Cosinor method to find a length of circadian cycle and corresponding p-value for statistical analysis.

Row | Compound | effect on RPE VEGF secretion
1 | N[C@@H](Cc1ccc(O)c(O)c1)C(=O)O [L-DOPA, 2-amino-3-(3,4-dihydroxyphenyl)propanoic acid] | antagonize dopamine effects
2 | NCCc1ccc(O)c(O)c1 [dopamine] | increase RPE VEGF secretion
3 | COc1ccc2[nH]cc(CCNC(C)=O)c2c1 [melatonin, Melatonin] | antagonize dopamine effects

From patent US11969401B2, “Compositions and methods for treating or limiting development of age-related macular degeneration” (Arizona Board of Regents on Behalf of The University of …, priority 2019, dated 2024)
